{"source": "patent US20180282281A1", "about": "“IMMUNOREGULATORY AGENTS” (FLEXUS BIOSCIENCES, INC., priority 2014, published 2018)"}
{"biological_target": "T1, human IDO1 (Homo sapiens, UniProt P14902)", "T1 construct": "expressed in transfected cells", "T1 sequence (P14902 whole entry)": "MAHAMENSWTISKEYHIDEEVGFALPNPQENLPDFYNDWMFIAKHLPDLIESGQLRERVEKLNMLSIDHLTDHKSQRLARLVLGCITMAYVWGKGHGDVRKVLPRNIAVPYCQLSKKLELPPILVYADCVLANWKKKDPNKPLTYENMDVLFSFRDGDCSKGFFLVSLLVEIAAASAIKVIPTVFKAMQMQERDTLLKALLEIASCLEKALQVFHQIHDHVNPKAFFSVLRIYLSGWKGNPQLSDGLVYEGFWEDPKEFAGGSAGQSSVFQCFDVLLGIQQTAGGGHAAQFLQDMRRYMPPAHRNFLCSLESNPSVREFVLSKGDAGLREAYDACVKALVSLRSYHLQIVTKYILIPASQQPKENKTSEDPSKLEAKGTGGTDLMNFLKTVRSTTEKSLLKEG", "test": "HEK293 human IDO1 cell-based IDO inhibition assay", "conditions": "read-out: HEK Human IDO-1 Potency", "procedure": "1HEK293 cells were transfected with a pCDNA-based mammalian expression vector harboring human IDO1 cDNA (NM 002164.2) by electroporation. They were cultured in medium (DMEM with 10% FBS) containing 1 mg/ml G418 for two weeks. Clones of HEK293 cells that stably expressed human IDO1 protein were selected and expanded for IDO inhibition assay.\nThe human IDOL/HEK293 cells were seeded at 10,000 cells per 50 μL per well with RPMI/phenol red free media contains 10% FBS in a 384-well black wall clear bottom tissue culture plate (Matrix Technologies LLC) 100 nL of certain concentration of compound was then added to each well using ECHO liquid handling systems. The cells were incubated for 20 hours in 37° C. incubator with 5% CO2.\nThe compound treatments were stopped by adding Trichloroacetic Acid (Sigma-Aldrich) to a final concentration at 0.2%. The cell plate was further incubated at 50° C. for 30 minute. The equal volume supernatant (20 μL) and 0.2% (w/v) Ehrlich reagent (4-dimethylaminobenzaldehyde, Sigma-Aldrich) in glacial acetic acid were mixed in a new clear bottom 384-well plate. This plate was then incubated at room temperature for 30 minute. The absorbance at 490 nm was measured on Envision plate reader.", "units": {"IC50": "nM"}}
{"compound": "CC(C(=O)O)c1ccc(C[C@@H](C(=O)Nc2ccc(Cl)cc2)[C@H]2CC[C@@H](c3ccnc4ccc(F)cc43)CC2)cc1", "note": "(mixture of isomers) [Example 137, 2-(4-((R)-3-((4-Chlorophenyl)amino)-2-((cis)-4-(6-fluoroquinolin-4-yl)cyclohexyl)-3-oxopropyl)phenyl)propanoic Acid]", "IC50": "< 50"}
{"compound": "CCC(C(=O)Nc1ccc(Cl)cc1)C1CCC(c2ccnc3ccc(F)cc23)CC1", "note": "(mixture of isomers) [Example 154, N-(4-Chlorophenyl)-2-(4-(6-fluoroquinolin-4-yl)cyclohexyl)butanamide]", "IC50": "< 50"}
{"compound": "CCC(C(=O)Nc1ccc(Cl)cc1)[C@H]1CC[C@H](Oc2ccnc3cc(C(F)(F)F)ccc23)CC1", "note": "(mixture of isomers) [Example 83, (±)—N-(4-Chlorophenyl)-2-((trans)-4-((7-(trifluoromethyl)quinolin-4-yl)oxy)cyclohexyl)butanamide]", "IC50": "< 250"}
{"compound": "CCC(C(=O)Nc1ccc(Cl)cc1)[C@H]1CC[C@H](Oc2cc(C(F)(F)F)nc3ccccc23)CC1", "note": "(mixture of isomers) [Example 84, (±)—N-(4-Chlorophenyl)-2-((trans)-4-((2-(trifluoromethyl)quinolin-4-yl)oxy)cyclohexyl)butanamide]", "IC50": "> 250"}
{"compound": "CCC(C(=O)Nc1ccc(Cl)cc1)[C@H]1CC[C@H](Oc2ccnc3ccccc23)CC1", "note": "(mixture of isomers) [Example 85, (±)—N-(4-Chlorophenyl)-2-((trans)-4-(quinolin-4-yloxy)cyclohexyl)butanamide]", "IC50": "< 50"}
{"compound": "CCC(C(=O)Nc1ccc(Cl)cc1)[C@H]1CC[C@@H](Oc2cc(C(F)(F)F)nc3ccccc23)CC1", "note": "(mixture of isomers) [Example 88, (±)—N-(4-Chlorophenyl)-2-((cis)-4-((2-(trifluoromethyl)quinolin-4-yl)oxy)cyclohexyl)butanamide]", "IC50": "< 50"}
{"compound": "CCC(C(=O)Nc1ccc(Cl)cc1)[C@H]1CC[C@@H](Oc2ccnc3ccc(C(F)(F)F)cc23)CC1", "note": "(mixture of isomers) [Example 89, (±)—N-(4-Chlorophenyl)-2-((cis)-4-((6-(trifluoromethyl)quinolin-4-yl)oxy)cyclohexyl)butanamide]", "IC50": "> 250"}
{"compound": "Cc1ccc(NC(=O)C(C)N2CCC(Oc3ccc4nccc(Cl)c4c3)CC2)cc1", "note": "(racemic) [Example 92, (±)-2-(4-((4-Chloroquinolin-6-yl)oxy)piperidin-1-yl)-N-(p-tolyl)propanamide]", "IC50": "> 250"}
{"compound": "CC(C(=O)Nc1ccc(Cl)cc1)N1CCC(Oc2ccnc3ccc(F)cc23)CC1", "note": "(racemic) [Example 96, (±)—N-(4-Chlorophenyl)-2-(4-((6-fluoroquinolin-4-yl)oxy)piperidin-1-yl)propanamide]", "IC50": "< 50"}
{"compound": "CC(C)C(C(=O)Nc1ccc(Cl)cc1)N1CCC(Oc2ccnc3ccc(F)cc23)CC1", "note": "(racemic) [Example 102, (±)—N-(4-Chlorophenyl)-2-(4-((6-fluoroquinolin-4-yl)oxy)piperidin-1-yl)-3-methylbutanamide]", "IC50": "> 250"}
{"compound": "CC(C(=O)Nc1ccc(Cl)cc1)N1CCN(c2ccnc3ccc(F)cc23)CC1", "note": "(racemic) [Example 126, (±)—N-(4-Chlorophenyl)-2-(4-(6-fluoroquinolin-4-yl)piperazin-1-yl)propanamide]", "IC50": "> 250"}
{"compound": "CC(C(=O)Nc1ccc(Br)cc1)N1CCN(c2ccnc3ccc(F)cc23)CC1", "note": "(racemic) [Example 127, (±)—N-(4-Bromophenyl)-2-(4-(6-fluoroquinolin-4-yl)piperazin-1-yl)propanamide]", "IC50": "> 250"}
{"compound": "CC(C(=O)Nc1ccccc1)N1CCN(c2ccnc3ccc(F)cc23)CC1", "note": "(racemic) [Example 128, (±)-2-(4-(6-Fluoroquinolin-4-yl)piperazin-1-yl)-N-phenylpropanamide]", "IC50": "> 250"}
{"compound": "CCC(C(=O)Nc1ccc(Cl)cc1)N1CCN(c2ccnc3ccc(F)cc23)CC1", "note": "(racemic) [Example 131, (±)—N-(4-Chlorophenyl)-2-(4-(6-fluoroquinolin-4-yl)piperazin-1-yl)butanamide]", "IC50": "< 50"}
{"compound": "CCC(C(=O)Nc1ccccc1)N1CCN(c2ccnc3ccc(F)cc23)CC1", "note": "(racemic) [Example 132, (±)-2-(4-(6-Fluoroquinolin-4-yl)piperazin-1-yl)-N-phenylbutanamide]", "IC50": "> 250"}
{"compound": "COCC(C(=O)Nc1ccc(Cl)cc1)N1CCN(c2ccnc3ccc(F)cc23)CC1", "note": "(racemic) [Example 133, (±)—N-(4-Chlorophenyl)-2-(4-(6-fluoroquinolin-4-yl)piperazin-1-yl)-3-methoxypropanamide]", "IC50": "> 250"}
{"compound": "COCC(C(=O)Nc1ccc(F)cc1)N1CCN(c2ccnc3ccc(F)cc23)CC1", "note": "(racemic) [Example 134, (±)—N-(4-Fluorophenyl)-2-(4-(6-fluoroquinolin-4-yl)piperazin-1-yl)-3-methoxypropanamide]", "IC50": "< 250"}
{"compound": "CC(C(=O)Nc1ccc(Cl)cc1)C1CCC(c2ccnc3ccnn23)CC1", "note": "(racemic) [Example 143, (±)—N-(4-chlorophenyl)-2-(cis- and trans-4-(pyrazolo[1,5-a]pyrimidin-7-yl)cyclohexyl)propanamide]", "IC50": "< 250"}
{"compound": "CC(C(=O)Nc1ccc(Cl)cc1)C1CCC(c2ccnc3ncccc23)CC1", "note": "(racemic) [Example 147, (±)-2-(Cis- and trans-4-(1,8-naphthyridin-4-yl)cyclohexyl)-N-(4-chlorophenyl)propanamide]", "IC50": "< 50"}
{"compound": "CC(C(=O)Nc1ccc(Cl)cc1)C1CCC(c2ccnc3cn[nH]c23)CC1", "note": "(racemic) [Example 149, (±)-2-(Cis- and trans-4-(1H-pyrazolo[4,3-b]pyridin-7-yl)cyclohexyl)-N-(4-chlorophenyl)propanamide]", "IC50": "< 50"}
{"compound": "CC(C(=O)Nc1ccc(Cl)cc1)[C@H]1CC[C@H](Oc2ccnc3ncccc23)CC1", "note": "(mixture of isomers) [Example 153, (±)-2-((trans)-4-((1,8-Naphthyridin-4-yl)oxy)cyclohexyl)-N-(4-chlorophenyl)propanamide]", "IC50": "< 50"}
{"compound": "CC(C(=O)Nc1ccc(Cl)cc1)[C@]1(F)CC[C@H](c2ccnc3ccc(F)cc32)CC1", "note": "(mixture of isomers) [Example 233, (+/−)—N-(4-chlorophenyl)-2-(trans-1-fluoro-4-(6-fluoroquinolin-4-yl)cyclohexyl) propanamide]", "IC50": "< 50"}
{"compound": "CCC(C(=O)Nc1ccc(Cl)cc1)C1CCN(c2ccnc3ccc(F)cc23)CC1", "note": "(racemic) [Example 243, (±)—N-(4-Chlorophenyl)-2-(1-(6-fluoroquinolin-4-yl)piperidin-4-yl)butanamide]", "IC50": "> 250"}
{"compound": "CCCC(C(=O)Nc1ccc(Cl)cc1)N1CCN(c2ccnc3ccc(F)cc23)CC1", "note": "(racemic) [Example 244, (±)—N-(4-Chlorophenyl)-2-(4-(6-fluoroquinolin-4-yl)piperazin-1-yl)pentanamide]", "IC50": "< 250"}
{"compound": "CCCC(C(=O)NC1(C)CCCCC1)N1CCN(c2ccnc3ccc(F)cc23)CC1", "note": "(racemic) [Example 247, (±)-2-(4-(6-Fluoroquinolin-4-yl)piperazin-1-yl)-N-(1-methylcyclohexyl)pentanamide]", "IC50": "> 250"}
{"compound": "CCC(C(=O)Nc1ccc(Cl)cc1)[C@H]1CC[C@H](Oc2ccnc3cc(C(F)(F)F)ccc23)CC1", "note": "(single isomer, unassigned) [Example 83a, N-(4-Chlorophenyl)-2-((trans)-4-((7-(trifluoromethyl)quinolin-4-yl)oxy)cyclohexyl)-2-butanamide]", "IC50": "> 250"}
{"compound": "CCC(C(=O)Nc1ccc(Cl)cc1)[C@H]1CC[C@H](Oc2ccnc3cc(C(F)(F)F)ccc23)CC1", "note": "(single isomer, unassigned) [Example 83b, N-(4-Chlorophenyl)-2-((trans)-4-((7-(trifluoromethyl)quinolin-4-yl)oxy)cyclohexyl)-2-butanamide]", "IC50": "< 250"}
{"compound": "CC(C(=O)O)c1ccc(C[C@@H](C(=O)Nc2ccc(Cl)cc2)[C@H]2CC[C@@H](c3ccnc4ccccc43)CC2)cc1", "note": "(single isomer, unassigned) [Example 87a]", "IC50": "< 50"}
{"compound": "CCC(C(=O)Nc1ccc(Cl)cc1)[C@H]1CC[C@@H](Oc2cc(C(F)(F)F)nc3ccccc23)CC1", "note": "(single isomer, unassigned) [Example 88a, N-(4-Chlorophenyl)-2-((cis)-4-((2-(trifluoromethyl)quinolin-4-yl)oxy)cyclohexyl)butanamide]", "IC50": "< 50"}
{"compound": "CCC(C(=O)Nc1ccc(Cl)cc1)[C@H]1CC[C@@H](Oc2cc(C(F)(F)F)nc3ccccc23)CC1", "note": "(single isomer, unassigned) [Example 88b, N-(4-Chlorophenyl)-2-((cis)-4-((2-(trifluoromethyl)quinolin-4-yl)oxy)cyclohexyl)butanamide]", "IC50": "< 250"}
{"compound": "CCC(C(=O)Nc1ccc(Cl)cc1)[C@H]1CC[C@@H](Oc2ccnc3ccc(C(F)(F)F)cc23)CC1", "note": "(single isomer, unassigned) [Example 89a, N-(4-Chlorophenyl)-2-((cis)-4-((6-(trifluoromethyl)quinolin-4-yl)oxy)cyclohexyl)butanamide]", "IC50": "< 250"}
{"compound": "CCC(C(=O)Nc1ccc(Cl)cc1)[C@H]1CC[C@@H](Oc2ccnc3ccc(C(F)(F)F)cc23)CC1", "note": "(single isomer, unassigned) [Example 89b, N-(4-Chlorophenyl)-2-((cis)-4-((6-(trifluoromethyl)quinolin-4-yl)oxy)cyclohexyl)butanamide]", "IC50": "> 250"}
{"compound": "CC(C(=O)Nc1ccc(Cl)cc1)N1CCC(Oc2ccc3nccc(Cl)c3c2)CC1", "note": "(single isomer, unassigned) [Example 93]", "IC50": "< 50"}
